According to patent publication US20140140951A1, “D-Alanine Ester of Rp-Nucleoside Analog” (priority 2012, published 2014):
pEC50: −log10 of the molar value.

Tests used:
[1] = Stability in liver microsomes; assay type: in vitro ADME, human; conditions: 10 μM, 1.0 mg/mL protein, NADPH, 60 min
Experimental: (§1) Stability of test compounds was determined in subcellular fractions (microsomes and S9) of human liver and intestine in duplicate for each matrix. Pooled liver and intestinal microsomal, intestinal and liver S9 proteins (1.0 mg/mL), suspended in incubation buffer (100 mM potassium phosphate, pH 7.4, 5 mM MgCl2, and 0.1 mM EDTA), were preincubated for 5 min at 37° C. with 10 μM of a test compound from a 10 mM stock solution in DMSO (final DMSO concentration was 0.1%); the reaction was initiated by the addition of NADPH (3 mM final concentration). At specific times (0 and 60 min), 0.1 mL samples were taken and the reaction terminated by the addition of 4 volumes of stop solution (acetonitrile with 500 ng/mL carbutamide as an internal standard). The samples were vortexed for 30 sec and then centrifuged at 16,000 g for 10 min. Aliquots of supernatants (100 μL each) were transferred to 96 deep-well plates preloaded with 100 μL distilled water and analyzed after mixing by LC-MS/MS. The MS peak area ratio of the test compound versus the internal standard was calculated and percent unchanged test compound over 60 minutes was calculated using this ratio.

HCV genotype 1b replicon = experiment: HCV replicon assay (luciferase reporter); assay type: cell-based; conditions: Hepatitis C virus; Zluc (Huh-7-derived) cells, 72 hours
Experimental: Huh-7-derived cell line (Zluc) that harbors an HCV genotype 1b replicon and a luciferase reporter gene was grown in Dulbecco's Modified Eagle Medium (DMEM) supplemented with 10% fetal bovine serum, 2 mM GlutaMAX, 1% MEM nonessential amino acids, 100 IU/mL penicillin, 100 μg/mL streptomycin, and 0.5 mg/mL Geneticin® (G418). For dose response testing the cells were seeded in 96-well plates at 7.5×10^3 cells per well in a volume of 50 μL, and incubated at 37° C./5% CO2. Drug solutions were made up freshly in Huh-7 media as 2× stocks. […] were prepared from these stocks in DMEM without G418. At least three hours after Zluc cells were seeded, drug treatment was initiated by adding 50 μL of drug dilutions to the plates in duplicate. Final concentrations of drug ranged from 100 μM to 0.0000512 μM. Cells were then incubated at 37° C./5% CO2. […] For this, media was removed from the plates via gentle tapping. Fifty microliters of ONE-glo luciferase assay reagent was added to each well. The plates were shaken gently for 3 min at room temperature and luminescence was measured on a Victor^3 V 1420 multilabel counter (Perkin Elmer) with a 1 second read time using a 700 nm cut-off filter. The EC50 values were calculated from dose response curves from the resulting best-fit equations determined by Microsoft Excel and XLfit 5.2 software. […]

[2] = Stability in intestinal microsomes; assay type: in vitro ADME, human; conditions: 10 μM, 1.0 mg/mL protein, NADPH, 60 min
Experimental: as §1

[3] = Liver pharmacokinetics (triphosphate) following a single oral dose in CD-1 mice; assay type: in vivo; conditions: single oral dose 10 mg/kg for I or 25 mg/kg for II in PEG 200, CD-1 male mice
Experimental: Liver samples were analyzed for the active species 2′-methyl-2′-fluorouridine triphosphate (2′-Me-2′-F—U TP) by LC-MS/MS. […] Internal standard solution was added to the homogenate followed by neutralization with 20% ammonium hydroxide solution and addition of 500 μL 1% formic acid. The tissue samples were extracted by weak anion exchange solid phase extraction (SPE). Post extraction, the eluates were evaporated under nitrogen, followed by reconstitution before injection onto the LC-MS/MS system. […] The calibration range was 10 to 10000 pmol/mL in mouse liver homogenate (50 to 50000 pmol/g of mouse liver).

[4] = Cytotoxicity evaluation (CellTiter-Blue cell viability); assay type: cell-based; conditions: human, Zluc cells (HCV replicon cells)
Experimental: For cytotoxicity evaluation, Zluc cells were treated with compound as described herein, and cell viability was monitored using the CellTiter-Blue Cell Viability Assay (Promega) by adding 20 μL of the assay solution to each well. The plates were then incubated at 37° C./5% CO2 for at least 3 hours. Fluorescence was detected in plates using excitation and emission wavelengths of 531 and 595 nm, respectively, in a Victor^3 V 1420 multilabel counter (Perkin Elmer) and CC50 values were determined using Microsoft Excel and XLfit 5.2 software.

| Compound | Stability (percent remaining) HLM (1 hr) [1] | pEC50 (HCV genotype 1b replicon) | Stability (percent remaining) HIM (1 hr) [2] | Ms Liver 2′-Me-2′-F-U TP AUC (pmol · hr/g at 1 μmol/kg) [3] | CC50 at 72 h [4] [µM] |
| --- | --- | --- | --- | --- | --- |
| CC(C)OC(=O)[C@@H](C)N[P@](=O)(OC[C@H]1O[C@@H](n2ccc(=O)[nH]c2=O)[C@](C)(F)[C@@H]1O)Oc1ccccc1 [Compound (Ib)] | +++++ (80% < +++++) | < 5.00 | +++++ (80% < +++++) | +++ (400 < +++ ≦ 1000) | > 50 |
| CC(C)OC(=O)[C@@H](C)N[P@@](=O)(OC[C@H]1O[C@@H](n2ccc(=O)[nH]c2=O)[C@](C)(F)[C@@H]1O)Oc1ccccc1 [Compound (Ia), D-Alanine, N—((RP,2′R)-2′-deoxy-2′-fluoro-2′-methyl-P-phenyl-5′-uridylyl)-, 1-methylethyl ester] | ++++ (60% < ++++ ≦ 80%) | < 5.00 | +++++ (80% < +++++) | +++++ (1600 < +++++) | > 50 |
